In assay [1] the target is Recombinant human KAT6A protein (497-780) (Homo sapiens (Human), UniProt Q92794). The assay can be described thus: KAT6A biochemical TR-FRET assay. The settings on record: histone H4 peptide 2000 nM, AcCoA 300 nM, enzyme 5 nM.
Assay [2] deals with Recombinant human KAT6B protein (657-1069) (Homo sapiens (Human), UniProt Q8WYB5). Put plainly: KAT6B biochemical TR-FRET assay. As to conditions: histone H4 peptide 1000 nM, AcCoA 100 nM, enzyme 5 nM. (In TR-FRET formats the signal depends on donor and acceptor labels being close together.)
For assay [3], the system named is histone H3K23 acetylation in U-2 OS cells. The assay can be described thus: Histone H3 lysine 23 acetylation assay in U-2 OS cells (high content analysis). The format is cell-based. As to conditions: Homo sapiens, U2OS, 24 hrs exposure, H3K23ac level. In short, it runs like this: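 U-2 OS cells seeded overnight, then exposed 24 h to a 9-point compound dilution series; 0.1% DMSO medium as blank. Fixed, permeabilised, stained with anti-H3K23ac plus Alexa Fluor 647 secondary and DAPI; nuclear H3K23ac intensity read by high-content imaging. Inhibition = mean per-well cell intensity relative to on-plate blanks.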

Chain of Recombinant human KAT6A protein (497-780) (Q92794 497-780): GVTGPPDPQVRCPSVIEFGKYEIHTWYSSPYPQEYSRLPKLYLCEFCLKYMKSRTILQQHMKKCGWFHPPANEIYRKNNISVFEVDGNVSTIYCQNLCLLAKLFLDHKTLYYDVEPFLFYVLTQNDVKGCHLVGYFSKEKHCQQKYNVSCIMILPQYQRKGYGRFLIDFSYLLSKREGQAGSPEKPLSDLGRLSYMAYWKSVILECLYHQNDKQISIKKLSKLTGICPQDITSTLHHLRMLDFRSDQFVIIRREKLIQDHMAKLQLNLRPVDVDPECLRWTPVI
Chain of Recombinant human KAT6B protein (657-1069) (Q8WYB5 657-1069): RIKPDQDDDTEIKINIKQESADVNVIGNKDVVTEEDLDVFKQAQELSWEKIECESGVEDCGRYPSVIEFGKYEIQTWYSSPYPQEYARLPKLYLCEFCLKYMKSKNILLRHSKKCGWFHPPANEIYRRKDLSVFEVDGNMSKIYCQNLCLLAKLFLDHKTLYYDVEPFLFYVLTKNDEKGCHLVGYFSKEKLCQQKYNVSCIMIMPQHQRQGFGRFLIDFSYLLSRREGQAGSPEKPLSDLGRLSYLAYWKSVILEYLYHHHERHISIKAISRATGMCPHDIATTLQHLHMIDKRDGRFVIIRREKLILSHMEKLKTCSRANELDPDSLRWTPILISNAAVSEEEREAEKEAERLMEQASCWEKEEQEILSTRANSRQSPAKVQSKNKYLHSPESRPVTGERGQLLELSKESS

For the compound `C=Cc1cc(C(=O)NS(=O)(=O)c2c(OC)ccc3c2OC(C)(C)C3)ccc1Cn1cccn1` [Example C44, 4-((1H-pyrazol-1-yl)methyl)-N-((6-methoxy-2,2-dimethyl-2,3-dihydrobenzofuran-7-yl)sulfonyl)-3-vinylbenzamide], the IC50 in assay [1] is at most 5 nM; in assay [2], at most 5 nM; in assay [3] it was at most 10 nM.

Consider `COc1ccc(C2(C)CCOCC2)cc1S(=O)(=O)NC(=O)c1ccc(Cn2cccn2)c(OC)n1` [Example C70, 5-((1H-pyrazol-1-yl)methyl)-6-methoxy-N-((2-methoxy-5-(4-methyltetrahydro-2H-pyran-4-yl)phenyl)sulfonyl) picolinamide], for which the figures for the IC50 in assay [1], in assay [2] and in assay [3] were at most 5 nM, at most 5 nM and at most 10 nM, respectively.

Turning to `C#Cc1cc(C(=O)NS(=O)(=O)c2cc3c(cc2OC)CCC3)ccc1Cn1cccn1` [Example C9, 4-((1H-pyrazol-1-yl)methyl)-3-ethynyl-N-((6-methoxy-2,3-dihydro-1H-inden-5-yl)sulfonyl)benzamide], the results for the IC50 in assay [1], in assay [2] and in assay [3] were 5 to 50 nM, 5 to 50 nM and 10 to 100 nM, respectively.

As for `COc1ccc(C(C)(C)C)cc1S(=O)(=O)NC(=O)c1ccc(Cn2cccn2)c(-c2ccco2)c1` [Example C5, 4-((1H-pyrazol-1-yl)methyl)-N-((5-(tert-butyl)-2-methoxyphenyl)sulfonyl)-3-(furan-2-yl)benzamide], the IC50 in assay [1] was at most 5 nM; in assay [2], at most 5 nM; in assay [3], at most 10 nM.

As for `COc1cc(C(=O)NS(=O)(=O)c2nc(C(C)(C)C)ccc2OC)ccc1Cn1cccn1` [Example C27, 4-((1H-pyrazol-1-yl)methyl)-N-((6-(tert-butyl)-3-methoxypyridin-2-yl)sulfonyl)-3-methoxy-benzamide], the IC50 was at most 5 nM in assay [1], at most 5 nM in assay [2] and at most 10 nM in assay [3].

Consider `CCc1cc(C(=O)NS(=O)(=O)c2cc(C(C)(C)C)ccc2OC)ccc1Cn1cccn1` [Example C6, 4-((1H-pyrazol-1-yl)methyl)-N-((5-(tert-butyl)-2-methoxyphenyl)sulfonyl)-3-ethylbenzamide], for which the concentration for half-maximal inhibition (IC50) in assay [1] was at most 5 nM; in assay [2], at most 5 nM; in assay [3], at most 10 nM.

Regarding `COc1ccc(C(C)(C)C)nc1S(=O)(=O)NC(=O)c1ccc(Cn2cccn2)c(F)c1` [Example C24, 4-((1H-pyrazol-1-yl)methyl)-N-((6-(tert-butyl)-3-methoxypyridin-2-yl)sulfonyl)-3-fluorobenzamide], the IC50 in assay [1] was at most 5 nM; in assay [2], at most 5 nM; in assay [3] it was 10 to 100 nM.

In the case of `COc1ccc(C2(OC)COC2)cc1S(=O)(=O)NC(=O)c1ccc(Cn2cccn2)c(OC)n1` [Example C67, 5-((1H-pyrazol-1-yl)methyl)-6-methoxy-N-((2-methoxy-5-(3-methoxyoxetan-3-yl)phenyl)sulfonyl) picolinamide], the IC50 was at most 5 nM in assay [1], at most 5 nM in assay [2] and at most 10 nM in assay [3].

On to `COc1ccc(C(C)(C)C)nc1S(=O)(=O)NC(=O)c1ccc(Cn2cccn2)c(Br)c1` [Example C26, 4-((1H-pyrazol-1-yl)methyl)-3-bromo-N-((6-(tert-butyl)-3-methoxypyridin-2-yl)sulfonyl)benzamide], for which the figures for the IC50 in assay [1], in assay [2] and in assay [3] were at most 5 nM, at most 5 nM and at most 10 nM, respectively.

For the compound `COc1ccc(C(C)(C)C)cc1S(=O)(=O)NC(=O)c1ccc(Cn2cccn2)c(I)c1` [Example C1, 4-((1H-pyrazol-1-yl)methyl)-N-((5-(tert-butyl)-2-methoxyphenyl)sulfonyl)-3-iodobenzamide], the half-maximal inhibitory concentration (IC50) in assay [1] was at most 5 nM; in assay [2], at most 5 nM; in assay [3], at most 10 nM.

On to `[2H]C([2H])([2H])Oc1nc(C(=O)NS(=O)(=O)c2c(OC)ccc3c2OC(C)(C)C3)ccc1Cn1cccn1` [Example C65, 5-((1H-pyrazol-1-yl)methyl)-6-(methoxy-d3)-N-((6-methoxy-2,2-dimethyl-2,3-dihydrobenzofuran-7-yl)sulfonyl) picolinamide], for which the IC50 in assay [1] is at most 5 nM; in assay [2], at most 5 nM; in assay [3] it was at most 10 nM.

With `COc1ccc(C(C)(C)C)nc1S(=O)(=O)NC(=O)c1ccc(Cn2cccn2)c(Cl)c1` [Example C22, 4-((1H-pyrazol-1-yl)methyl)-N-((6-(tert-butyl)-3-methoxypyridin-2-yl)sulfonyl)-3-chlorobenzamide], the IC50 in assay [1] is at most 5 nM; in assay [2], at most 5 nM; in assay [3], at most 10 nM.

With `COc1ccc(C23COC(C2)C3)cc1S(=O)(=O)NC(=O)c1ccc(Cn2cccn2)c(OC)n1` [Example C77, 5-((1H-pyrazol-1-yl)methyl)-N-((5-(2-oxabicyclo[2.1.1]hexan-4-yl)-2-methoxyphenyl)sulfonyl)-6-methoxypicolinamide], the IC50 in assay [1] was 5 to 50 nM; in assay [2], at most 5 nM; in assay [3], at most 10 nM.

For `[2H]C([2H])([2H])Oc1nc(C(=O)NS(=O)(=O)c2c(OC)ccc3c2OCC3(C)C)ccc1Cn1cccn1` [Example C64, 5-((1H-pyrazol-1-yl)methyl)-6-(methoxy-d3)-N-((6-methoxy-3,3-dimethyl-2,3-dihydrobenzofuran-7-yl)sulfonyl) picolinamide], the IC50 in assay [1] was at most 5 nM; in assay [2] it was at most 5 nM; in assay [3] it was at most 10 nM.

For `COc1ccc2c(c1S(=O)(=O)NC(=O)c1ccc(Cn3cccn3)c(OC)n1)OCC2` [Example C58, 5-((1H-pyrazol-1-yl)methyl)-6-methoxy-N-((6-methoxy-2,3-dihydrobenzofuran-7-yl)sulfonyl)picolinamide], the results for the IC50 in assay [1], in assay [2] and in assay [3] were at most 5 nM, at most 5 nM and at most 10 nM, respectively.

Usually IC50 stands for the midpoint of a concentration-inhibition curve.

The values above are taken from patent publication US20250304535A1, “KAT6 Inhibitors” (BeiGene Switzerland GmbH, priority 2024, published 2025).
